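The compound was tested at five concentrations on cells cultured in 96-well plates, with a 48-hour exposure period. TGI marks complete inhibition of growth.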
Legend:
Assay in all cases: NCI tumour cell line growth inhibition, 48 h
CAKI-1 renal = tested on: CAKI-1 renal
SK-MEL-5 melanoma = tested on: SK-MEL-5 melanoma
UO-31 renal = tested on: UO-31 renal
HCT-116 colon = tested on: HCT-116 colon
OVCAR-5 ovarian = tested on: OVCAR-5 ovarian
HL-60(TB) leukemia = tested on: HL-60(TB) leukemia
HOP-92 NSCLC = tested on: HOP-92 NSCLC
MDA-MB-231 breast = tested on: MDA-MB-231 breast
SK-MEL-2 melanoma = tested on: SK-MEL-2 melanoma
SF-268 CNS = tested on: SF-268 CNS
RPMI-8226 leukemia = tested on: RPMI-8226 leukemia
NCI-H460 lung = tested on: NCI-H460 lung
BT-549 breast = tested on: BT-549 breast
TK-10 renal = tested on: TK-10 renal
OVCAR-4 ovarian = tested on: OVCAR-4 ovarian
NCI/ADR-RES ovarian = tested on: NCI/ADR-RES ovarian
NCI-H23 lung = tested on: NCI-H23 lung
M14 melanoma = tested on: M14 melanoma
ACHN renal = tested on: ACHN renal
SF-295 CNS = tested on: SF-295 CNS

| SMILES | TGI (CAKI-1 renal) [µM] | TGI (SK-MEL-5 melanoma) [µM] | TGI (UO-31 renal) [µM] | TGI (HCT-116 colon) [µM] | TGI (OVCAR-5 ovarian) [µM] | TGI (HL-60(TB) leukemia) [µM] | TGI (HOP-92 NSCLC) [µM] | TGI (MDA-MB-231 breast) [µM] | TGI (SK-MEL-2 melanoma) [µM] | TGI (SF-268 CNS) [µM] | TGI (RPMI-8226 leukemia) [µM] | TGI (NCI-H460 lung) [µM] | TGI (BT-549 breast) [µM] | TGI (TK-10 renal) [µM] | TGI (OVCAR-4 ovarian) [µM] | TGI (NCI/ADR-RES ovarian) [µM] | TGI (NCI-H23 lung) [µM] | TGI (M14 melanoma) [µM] | TGI (ACHN renal) [µM] | TGI (SF-295 CNS) [µM] |
| --- | --- | --- | --- | --- | --- | --- | --- | --- | --- | --- | --- | --- | --- | --- | --- | --- | --- | --- | --- | --- |
| Clc1ccc(/C=c2\nc(-c3ccccc3)n3c2nc2ccccc23)cc1 | > 100 | > 100 | > 100 | > 100 | > 100 | > 100 | > 100 | > 100 | > 100 | > 100 | > 100 | > 100 | > 100 | > 100 | > 100 | > 100 | > 100 | > 100 | 50.6 | > 100 |
| Cc1cccc(C)c1NC(=O)C(=O)C(c1ccccc1Cl)S(=O)(=O)Cc1ccccc1Cl (stereo not given) | > 100 | > 100 | > 100 | > 100 | > 100 | 0.533 | 44 | > 73.4 | > 100 | 66.6 | > 100 | > 100 | > 83.5 | > 100 | > 100 | > 100 | > 76.9 | > 100 | > 100 | > 75.2 |
| c1cc2c(cc1NC1=NCCO1)CCCC2 | > 88.1 | 9.17 | 51.8 | 16 | 39.7 | 7.5 | 19.3 | 6.1 | 11.4 | 25 | 12 | 15.7 | 75.7 | 52.5 | 71.2 | 8.84 | 16 | 12.2 | 72.9 | 25.6 |
| C=CC(C)CCC(C/C=C(\C)CCCC(C)C)C(=C)CCCC(C)C (stereo not given) | > 100 | > 100 | > 100 | > 100 | > 100 | > 100 | > 100 | > 100 | > 100 | > 100 | > 100 | > 100 | > 100 | > 100 | > 100 | > 100 | > 100 | > 100 | > 100 | > 100 |
| SCc1ccc(-c2ccc(CS)cc2)cc1 | 18.5 | 31 | 37.8 | 17.8 | 27 | 12.4 | 40.8 | 31 | 41.5 | 10.3 | 30.6 | 25.1 | 6.47 | > 61.3 | 17.5 | 32.3 | 31.7 | 29.8 | 43.1 | 24.9 |
| CSc1ccc(/C=C/C(=O)c2nc3ccccc3[nH]2)cc1 | 6.19 | 57.8 | 19.9 | 31.4 | 88.2 | 43.1 | > 100 | 24.3 | 37.7 | 93.6 | 13.4 | 45.2 | 48.4 | 31.5 | 76.9 | 64.1 | 89.5 | 36.8 | 43.2 | > 100 |
| Nc1nc(Cl)cc(NCC2(CO)CC(CCCc3ccccc3)C2)n1 (stereo not given) | > 100 | > 100 | > 100 | > 100 | > 100 | > 100 | > 95.9 | > 100 | > 100 | > 100 | > 100 | > 100 | > 100 | > 100 | > 100 | > 100 | > 100 | > 100 | > 100 | > 100 |
| CC(/C=C/C=C\C=C\C=C(/C)C(=O)NC(C)CO)=C\C(C)C(O)/C(C)=C/C(C)CCc1ccccc1 (stereo not given) | 54.1 | 15.5 | 27.3 | 19.4 | 31 | > 100 | 13.5 | 45.2 | 29.6 | 28.4 | > 78.6 | 26.5 | 33.1 | 32.1 | 37.4 | 93 | 17 | 23 | 21.9 | 13.4 |
| O=c1[nH]c(=S)n(-c2cccc3ccccc23)c(O)c1/C=C1\C=Nc2ccccc21 | 8.65 | 3.12 | 4.93 | 4.55 | 5.47 | 5.27 | 4.85 | 5.14 | 3.55 | 11.4 | 4.96 | 5.38 | 3.55 | 6.06 | 7.42 | 10.5 | 3.48 | 3.77 | 5.73 | 10.3 |
| CCCCCCCCCCCCCCCCC(=O)NCC(=O)NCC(=O)NC(Cc1ccccc1)C(=O)Oc1ccc([N+](=O)[O-])cc1 (stereo not given) | 32.2 | 47.4 | > 100 | 32.6 | 57.7 | > 100 | > 100 | 38.9 | > 100 | 50.4 | 58.2 | 38.6 | 34.2 | > 100 | > 100 | 42.9 | > 100 | 41.1 | > 100 | 40.4 |

— PubChem BioAssay (NCI)
